{"source": "patent US6387912B1", "about": "“Utilization of pyrimidine derivatives for preventing and treating cerebral ischaemia” (BASF Aktiengesellschaft, priority 1999, dated 2002)", "note": "Where a name gives a salt, the structure may show the parent alone."}
{"smiles": "Cc1ccc(N2CCN(CCn3cnc4sc5c(c4c3=O)CCN(C)C5)CC2)c2ccccc12", "note": "[Example 138, 3,4,5,6,7,8-Hexahydro-7-methyl-3-[2-(4-(4-methylnaphth-1-yl)piperazin-1-yl)ethyl]pyrido[4′,3′:4,5]thieno[2,3-d]-pyrimidin-4-one]", "melting point": "139 to 141 °C"}
{"smiles": "COc1ccccc1N1CCN(CCn2cnc3sc4c(c3c2=O)CCNC4)CC1", "note": "[Example 115, 3,4,5,6,7,8-Hexahydro-3-[2-(4-(2-methoxyphenyl)-piperazin-1-yl)ethyl]pyrido[4′,3′:4,5]thieno[2,3-d]pyrimidin-4-one]", "melting point": "168 to 170 °C"}
{"smiles": "Cc1cccc(N2CCN(CCn3cnc4sc5c(c4c3=O)CCN(C)C5)CC2)n1", "note": "[Example 126, 3,4,5,6,7,8-Hexahydro-7-methyl-3-[2-(4-(6-methylpyridin-2-yl)piperazin-1-yl)ethyl]pyrido[4′,3′:4,5]thieno[2,3-d]-pyrimidin-4-one]", "melting point": "138 to 140 °C"}
{"smiles": "CN1CCc2c(sc3ncn(CCN4CCN(c5ccc6ccccc6n5)CC4)c(=O)c23)C1", "note": "[Example 65, 3,4,5,6,7,8-Hexahydro-7-methyl-3-[2-(4-quinolin-2-yl-piperazin-1-yl)ethyl]pyrido[4′,3′:4,5]thieno[2,3-d]-pyrimidin-4-one]", "melting point": "143 to 145 °C"}
{"smiles": "CN1CCc2c(sc3ncn(CCN4CCN(c5nccc(C(F)(F)F)n5)CC4)c(=O)c23)C1", "note": "[Example 127, 3,4,5,6,7,8-Hexahydro-7-methyl-3-[2-(4-(4-trifluoromethyl-pyrimidin-2-yl)piperazin-1-yl)ethyl]pyrido[4′,3′:4,5]-thieno[2,3-d]pyrimidin-4-one]", "melting point": "291 to 292 °C"}
{"smiles": "CCN1CCc2sc3ncn(CCN4CCN(c5cccc6c5CCCC6)CC4)c(=O)c3c2C1", "note": "(as salt: hydrochloride) [Example 12, 3,4,5,6,7,8-Hexahydro-6-ethyl-3-[2-(4-tetralin-5-yl-piperazin-1-yl)ethyl]pyrido[3′,4′:4,5]thieno[2,3-d]pyrimidin-4-one]", "melting point": "287 °C"}
{"smiles": "CN1CCc2c(sc3ncn(CCN4CCN(c5cc(Cl)cc(Cl)c5)CC4)c(=O)c23)C1", "note": "[Example 46, 3,4,5,6,7,8-Hexahydro-7-methyl-3-[2-(4-(3,5-dichlorophenyl)-piperazin-1-yl)ethyl]pyrido[4′,3′:4,5]thieno[2,3-d]pyrimidin-4-one]", "melting point": "97 to 100 °C"}
{"smiles": "CCOC(=O)N1Cc2sc3ncn(CCN4CCN(c5ncccn5)CC4)c(=O)c3c2C1", "note": "[Example 11, 3,4,5,7-Tetrahydro-6-carboethoxy-3-[2-(4-pyrimidin-2-yl-piperazin-1-yl)ethyl]pyrrolo[3′,4′:4,5]thieno[2,3-d]-pyrimidin-4-one]", "melting point": "166 °C"}
{"smiles": "Cc1c(C(=O)N(C)C)sc2ncn(CCN3CCN(c4cccc5c4CCCC5)CC3)c(=O)c12", "note": "[Example 13, 3,4-Dihydro-5-methyl-6-dimethylcarbamoyl-3-[2-(4-tetralin-5-ylpiperazin-1-yl)ethyl]thieno[2,3-d]pyrimidin-4-one]", "melting point": "174 °C"}
{"smiles": "CN1CCc2c(sc3ncn(CCCN4CCN(c5ncccn5)CC4)c(=N)c23)C1", "note": "[Example 36, 3,4,5,6,7,8-Hexahydro-7-methyl-3-[3-(4-pyrimidin-2-yl-piperazin-1-yl)propyl]pyrido[4′,3′:4,5]thieno[2,3-d]-pyrimidin-4-imine]", "melting point": "161 to 163 °C"}
{"smiles": "CN1CCc2c(sc3ncn(CCN4CCN(c5cc(C(F)(F)F)ccn5)CC4)c(=O)c23)C1", "note": "[Example 141, 3,4,5,6,7,8-Hexahydro-7-methyl-3-[2-(4-(4-trifluoromethylpyridin-2-yl)piperazin-1-yl)ethyl]pyrido[4′,3′:4,5]thieno-[2,3-d]pyrimidin-4-one]", "melting point": "101 to 102 °C"}
{"smiles": "CCN1CCc2sc3ncn(CCN4CCCN(c5cccc6ccccc56)CC4)c(=O)c3c2C1", "note": "(as salt: hydrochloride) [Example 17, 3,4,5,6,7,8-Hexahydro-6-ethyl-3-[2-(4-naphth-1-ylhexahydro-1,4-diazepin-1-yl)ethyl]pyrido[3′,4′:4,5]thieno[2,3-d]-pyrimidin-4-one]", "melting point": "276 to 280 °C"}
{"smiles": "CCOC(=O)N1Cc2sc3ncn(CCCN4CCN(c5ccccc5C#N)CC4)c(=O)c3c2C1", "note": "[Example 43, 3,4,5,7-Tetrahydro-6-carboethoxy-3-[3-(4-(2-cyanophenyl)-piperazin-1-yl)propyl]pyrrolo[3′,4′:4,5]thieno[2,3-d]-pyrimidin-4-one]", "melting point": "190 °C"}
{"smiles": "O=c1c2c3c(sc2ncn1CCN1CCN(c2ccccc2)CC1)CN(Cc1ccccc1)CC3", "note": "[Example 19, 3,4,5,6,7,8-Hexahydro-7-benzyl-3-[2-(4-phenylpiperazin-1-yl)-ethyl]pyrido[4′,3′:4,5]thieno[2,3-d]pyrimidin-4-one]", "melting point": "70 to 71 °C"}
{"smiles": "CN1CCc2c(sc3ncn(CCCN4CCN(c5ccccc5C#N)CC4)c(=N)c23)C1", "note": "[Example 37, 3,4,5,6,7,8-Hexahydro-7-methyl-3-[3-(4-(2-cyanophenyl)-piperazin-1-yl)propyl]pyrido[4′,3′:4,5]thieno[2,3-d]-pyrimidin-4-imine]", "melting point": "148 to 150 °C"}
{"smiles": "Cc1c(C(=O)N(C)C)sc2ncn(CCN3CCN(c4cccc(C(F)(F)F)c4)CC3)c(=O)c12", "note": "[Example 7, 3,4-Dihydro-5-methyl-6-dimethylcarbamoyl-3-[2-(4-(3-trifluoromethylphenyl)piperazin-1-yl)ethyl]thieno[2,3-d]-pyrimidin-4-one]", "melting point": "146 °C"}
{"smiles": "N=c1c2c3c(sc2ncn1CCN1CCN(c2ccccc2)CC1)CN(Cc1ccccc1)CC3", "note": "[Example 17, 3,4,5,6,7,8-Hexahydro-7-benzyl-3-[2-(4-phenylpiperazin-1-yl)-ethyl]pyrido[4′,3′:4,5]thieno[2,3-d]pyrimidin-4-imine]", "melting point": "168 to 170 °C"}
{"smiles": "CN1CCc2c(sc3ncn(CCCN4CCN(c5ncccn5)CC4)c(=O)c23)C1", "note": "[Example 64, 3,4,5,6,7,8-Hexahydro-7-methyl-3-[3-(4-pyrimidin-2-yl-piperazin-1-yl)propyl]pyrido[4′,3′:4,5]thieno[2,3-d]-pyrimidin-4-one]", "melting point": "161 to 163 °C"}
{"smiles": "CCOC(=O)N1Cc2sc3ncn(CCN4CCN(c5ccccc5C)CC4)c(=O)c3c2C1", "note": "[Example 38, 3,4,5,7-Tetrahydro-6-carboethoxy-3-[2-(4-(2-methylphenyl)-piperazin-1-yl)ethyl]pyrrolo[3′,4′:4,5]thieno-[2,3-d]pyrimidin-4-one]", "melting point": "152 °C"}
{"smiles": "COc1ccccc1N1CCN(CCn2c(C)nc3sc4c(c3c2=O)CCN(C)C4)CC1", "note": "[Example 120, 3,4,5,6,7,8-Hexahydro-2,7-dimethyl-3-[2-(4-(2-methoxyphenyl)-piperazin-1-yl)ethyl]pyrido[4′,3′:4,5]thieno-[2,3-d]pyrimidin-4-one]", "melting point": "176 to 178 °C"}
{"smiles": "CCN1CCc2sc3ncn(CCN4CCN(c5ccccc5Cl)CC4)c(=O)c3c2C1", "note": "[Example 5, 3,4,5,6,7,8-Hexahydro-6-ethyl-3-[2-(4-(2-chlorophenyl)-piperazin-1-yl)ethyl]pyrido[3′,4′:4,5]thieno[2,3-d]-pyrimidin-4-one]", "melting point": "148 to 150 °C"}
{"smiles": "CCOC(=O)N1Cc2sc3ncn(CCN4CCN(c5cccc6ccccc56)CC4)c(=O)c3c2C1", "note": "[Example 8, 3,4,5,7-Tetrahydro-6-carboethoxy-3-[2-(4-(1-naphthyl)-piperazin-1-yl)ethyl]pyrrolo[3′,4′:4,5]thieno[2,3-d]-pyrimidin-4-one]", "melting point": "190 to 192 °C"}
{"smiles": "CN1CCc2c(sc3ncn(CCN4CCN(c5ccccc5C#N)CC4)c(=O)c23)C1", "note": "[Example 68, 3,4,5,6,7,8-Hexahydro-7-methyl-3-[2-(4-(2-cyanophenyl)-piperazin-1-yl)ethyl]pyrido[4′,3′:4,5]thieno[2,3-d]-pyrimidin-4-one]", "melting point": "162 to 164 °C"}
{"smiles": "Cc1cccc(N2CCN(CCn3cnc4sc5c(c4c3=O)CCN(C)C5)CC2)c1C", "note": "[Example 44, 3,4,5,6,7,8-Hexahydro-7-methyl-3-[2-(4-(2,3-dimethylphenyl)-piperazin-1-yl)ethyl]pyrido[4′,3′:4,5]thieno[2,3-d]pyrimidin-4-one]", "melting point": "163 to 167 °C"}
{"smiles": "CN1CCc2c(sc3ncn(CCCN4CCN(c5ccccc5O)CC4)c(=N)c23)C1", "note": "[Example 29, 3,4,5,6,7,8-Hexahydro-7-methyl-3-[3-(4-(2-hydroxyphenyl)-piperazin-1-yl)propyl]pyrido[4′,3′:4,5]thieno[2,3-d]-pyrimidin-4-imine]", "melting point": "164 to 166 °C"}
{"smiles": "CN1CCc2c(sc3ncn(CCN4CCN(c5ncccn5)CC4)c(=N)c23)C1", "note": "(as salt: tartrate) [Example 20, 3,4,5,6,7,8-Hexahydro-7-methyl-3-[2-(4-pyrimidin-2-yl-piperazin-1-yl)ethyl]pyrido[4′,3′:4,5]thieno[2,3-d]-pyrimidin-4-imine]", "melting point": "112 to 114 °C (dec.)"}
{"smiles": "COc1ccccc1N1CCN(CCCn2cnc3sc4c(c3c2=N)CCN(C)C4)CC1", "note": "[Example 15, 3,4,5,6,7,8-Hexahydro-7-methyl-3-[3-(4-(2-methoxyphenyl)-piperazin-1-yl)propyl]pyrido[4′,3′:4,5]thieno[2,3-d]pyrimidin-4-imine]", "melting point": "112 to 114 °C"}
{"smiles": "COc1ccccc1N1CCN(CCCn2cnc3sc4c(c3c2=O)CCN(Cc2ccccc2)C4)CC1", "note": "[Example 18, 3,4,5,6,7,8-Hexahydro-7-benzyl-3-[3-(4-(2-methoxyphenyl)-piperazin-1-yl)propyl]pyrido[4′,3′:4,5]thieno[2,3-d]-pyrimidin-4-one]", "melting point": "66 to 67 °C"}
{"smiles": "Cc1c(C(=O)N(C)C)sc2ncn(CCN3CCN(c4cccc5ccccc45)CC3)c(=O)c12", "note": "[Example 3, 3,4-Dihydro-5-methyl-6-dimethylcarbamoyl-3-[2-(4-(1-naphthyl)piperazin-1-yl)ethyl]thieno[2,3-d]pyrimidin-4-one]", "melting point": "190 to 191 °C"}
{"smiles": "Cc1ccc(C)c(N2CCN(CCn3cnc4sc(C(=O)N(C)C)c(C)c4c3=O)CC2)c1", "note": "[Example 31, 3,4-Dihydro-5-methyl-6-dimethylcarbamoyl-3-[2-(4-(2,5-dimethylphenyl)piperazin-1-yl)ethyl]thieno-[2,3-d]pyrimidin-4-one]", "melting point": "90 to 91 °C"}
{"smiles": "Cc1c(C(=O)N(C)C)sc2ncn(CCN3CCN(c4cccc5c4CCC5)CC3)c(=O)c12", "note": "[Example 14, 3,4-Dihydro-5-methyl-6-dimethylcarbamoyl-3-[2-(4-indan-4-ylpiperazin-1-yl)ethyl]thieno[2,3-d]pyrimidin-4-one]", "melting point": "153 °C"}
